“Also recorded” adds a separate entry of the source.
Test system: A549 xenograft
Experiment: A549 xenograft study
Assay type: in vivo, BALB/c nude mice
Description: All experimental procedures involving animals were conducted in accordance with the NHMRC Australian Code for the Care and Use of Animals for Scientific Purposes and with approval by the institutional animal ethics committee. BALB/c nude mice (Nu/Nu, female, 5-6 weeks old) were purchased from the Animal Resources Centre (Perth, Wash.) and maintained under pathogen-free conditions. A549 cells (5×106) in 100 μl PBS were injected subcutaneously into the flanks of the mice and the resulting tumour were measured using digital callipers. The tumour volume was calculated using the following formula: Volume=(larger diameter)×(small diameter)2/2. Once the tumours had reached 100 mm3, mice were divided into groups of 9 and each group administered either RB-012 in saline, FTY720 in saline or saline alone by intraperitoneal injection daily. Initially RB-12 and FTY720 were administered at 2 mg/kg for two days and then the dose was increased to 5 mg/kg for two weeks after which RB-012 was increased to 10 mg/kg but FTY720 maintained at 5 mg/kg. During this dosing regime tumours were monitored twice a week. Differences between samples were analysed using 2 way Anova and statistical significance was accepted at P<0.05.
To assess the effect of RB-012 on human lung cancer growth in vivo, A549 cells were implanted subcutaneously on the flanks of Balb/C nude mice and tumours allowed to develop until they had reached a volume of 100 mm^3. RB-012 or saline was then administered daily to assess the effect on tumour growth. Initially, to reduce the cramping and encourage tolerance, 2 mg/kg RB-012 was administered for two days and then the dose was increased to 5 mg/kg daily for two weeks. Tumour volume was monitored twice a week and after two weeks of treatment mice administered RB-012 had tumours that were 20% smaller than mice receiving saline. […] The tumours on the RB-012 treated mice continued to grow more slowly and after the third week were 30% smaller than those of saline-treated mice (P<0.05). […] Therefore we were unable to increase FTY720 dosing to match RB-012.

With `CCCCCCCCc1ccc(CCC(N)(CO)CO)cc1` [FTY720] the “tumour size versus saline” value (5 mg/kg daily i.p.) was “no reduction in tumour size; also recorded: did not elicit a reduction in tumour growth”, the “adverse effects at 10 mg/kg” value (10 mg/kg) was “severe cramping with cardiac arrhythmia, with fatality in some cases” and the “tolerability at 10 mg/kg” value (mouse, in vivo) was “not tolerated”.

Reference: patent US10583115B2, “Modulators of 14-3-3 functionality and uses thereof” (University of South Australia, priority 2014, dated 2020)
